“And” between values parts separate entries of the source, which are not always exact repeats. Identical values can stand only once.
How the values were obtained:
Rat1-myr-p110α tumor [1] = assay: Antitumor activity in the Rat1-myr-p110α tumor model, nude mice; type: in vivo; details: oral
Method: (§1) Experiments were performed in female Hsd: Athymic Nude-nu CPB mice (Harlan Winkelmann, Germany). Animals were between 12 and 14 weeks of age at treatment start and housed under Optimized Hygienic Conditions (OHC) in Makrolon type III cages (max. 5 animals per cage) with free access to food and water. In addition, experiments were also performed in female nude Rowett rats Hsd: RH-Fox1mu (Harlan (The Netherlands). Animals were 6-9 weeks of age at time of application of the compound. Animals were housed under Optimized Hygienic Conditions in Makrolon type III cages (max. 2 animals per cage) with free access to food and water. They were allowed to adapt for at least 6 days before the experiment was started.
(§2) Rat1-Myr-p110α cells were grown in Dulbecco's Modified Eagle Medium (DMEM) culture medium containing 4.5 g/l glucose supplemented with 10% heat-inactivated fetal calf serum (FCS), 2 mM L-glutamine, 1 mM sodium pyruvate and incubated at 37° C. in a 5% CO2 humidified atmosphere. Cells were harvested with trypsin-EDTA, re-suspended in culture medium (with additives) and counted with a Casy® system. Finally, cells are centrifuged, suspended in ice-cold Hanks' balanced salt solution (HBSS) at a concentration of 3×10^7 cells/ml. Cell culture reagents were purchased from BioConcept (Allschwil, Switzerland).
(§3) Rat1-Myr-p110α tumors were established by subcutaneous injection of […] in 100 μL HBSS (Sigma #H8264) into the right flank of nude mice or nude rats. For the efficacy experiments, treatments were initiated when the mean tumor volumes were approx. 300 mm^3 (14 to 15 days post tumor cells injection).
(§4) Fresh suspensions were prepared once every 4 days and stored at 4° C.
(§5) Tumor volumes were measured with calipers and determined according to the formula: length×diameter^2×[…]/6. In addition to presenting changes of tumor volumes over the course of treatments, antitumor activity is expressed as T/C % (mean change of tumor volume of treated animals/mean change of tumor volume of control animals)×100. Regressions (%) were calculated according to the formula ((mean tumor volume at end of treatment−mean tumor volume at start of treatment)/mean tumor volume at start of treatment)×100. Body weights and tumor volumes were recorded two to three times a week.

S473P-Akt [2] = assay: In vivo S473P-Akt inhibition in Rat1-myr-p110α tumors (RPPA) versus tumor drug concentration; set-up: species or system nude mice and rats
Method: as §3
(§6) Blood samples were collected at different time points post the last treatment (1 hour, 2 hour, 4 hour, 8 hour, 12 hour, 16 hour and 24 hour, n=2-3 per time point) into tubes coated with K-EDTA. Blood samples were centrifuged and collected plasma immediately frozen at −80° C. until final processing. Tumors were collected at sacrifice at 7 time points (1 hour, 2 hour, 4 hour, 8 hour, 12 hour, 16 hour and 24 hour, n=2-3 per time point), snap frozen and kept at −80° C. until final processing.
After dissection, the tumors were snap-frozen in liquid nitrogen and stored at −80° C. Frozen tumors were pulverized using a Retsch ball mixer mill MM20 (Arlesheim, Switzerland) with metal cylinders that were pre-cooled to −80° C. in a freezer. Powder was scrapped from metal cylinders on dry ice and transferred into pre-cooled 1.5 mL Eppendorf tubes while avoiding melting.
(§7) Following addition of 25 μL of internal standard (1 μg/mL) to analytical aliquots (25 μL) of plasma or (20 mg) tumor powder, the proteins were precipitated by the addition of 200 μL acetonitrile. The supernatant were transferred in a fresh vial. After evaporation to dryness the samples were re-dissolved in 60 μL acetonitrile/water (1/1 v/v). An aliquot (5 μL) of this solution was separated on a ACQUITY UPLC BEH C18 column (Waters™ 1.7 μm particle size, 2.1×50 mm) with a mobile phase consisting of a mixture of 0.1% formic acid in water (solvent A) and 0.1% formic acid in acetonitrile (solvent B). Gradient programming was used with a flow rate of 600 μL/min. After equilibration with 95% solvent A, 5 μL of sample was injected. Following a latency period of 0.25 min, the sample was eluted with a linear gradient of 5-100% solvent B over a period of 0.65 minutes followed by a 0.35 minutes hold. The column was prepared for the next sample by re-equilibrating over 0.25 minutes to the starting conditions. […]
Each sample was vortexed and centrifuged for 10 minutes at 10,000 rpm. […] The protein concentrations were quantified using the Coomassie Plus Kit (#23236 Thermo Scientific, Rockford, Ill., USA) according to the protocol of the manufacturer. The diluted samples were transferred into a 96 well plate (#269620, NUNC) and the absorbance was measured at 595 nm using a SpectraMAX Plus plate reader from Molecular Devices. The Protein amount was calculated using the Softmax Pro 5.0 software (Molecular Devices, USA) and then normalized on 1 mg/mL using the corresponding lysis buffer. […]

Plasma protein binding = type: in vitro ADME; details: mouse, read-out: plasma protein binding (PPB) (converted)
Human plasma exposure = type: in vivo; details: po, human dose 300-350 mg/day p.o.
Method: The corresponding total dose for qd in continuous daily schedule p.o. dose would be 14 mg/kg.

[3] = Modulation of glucose and insulin levels, nude mice; type: in vivo; details: versus plasma drug concentration
Rat1-myr-p110α tumor [4] = assay: Antitumor activity in the Rat1-myr-p110α tumor model, nude rats; type: in vivo; details: nude rat, oral
Method: as §1, §2, §3, §4, §5

DNA-PK = DNA-PK (Homo sapiens, UniProt P78527); details: cited from earlier work
[5] = Modulation of glucose and insulin levels, nude rats; type: in vivo; details: versus plasma drug concentration
mTOR = mTOR (Homo sapiens, UniProt P42345); details: cited from earlier work
Rat1-myr P110a tumors = assay: PK/PD/efficacy relationship (time over in vivo IC80 versus anti-tumor efficacy); set-up: species or system mice and rats
Description: Phoenix WinNonlin 6.3 (Pharsight) was used to simulate the mean plasma concentration time profiles after multiple dosing using the non-compartmental nonparametric superposition approach of data generated either from a mouse or rat efficacy study. The predictions are based upon an accumulation ratio computed from the terminal slope (Lambda Z), allowing predictions from simple or complicated dosing schedules.
FIG. 6 provides the relationship between exposure (as measured by time over the in vivo IC80) and anti-tumor efficacy. Further, a nearly linear relationship is identified between the anti-tumor efficacy magnitude and duration of drug exposure (as measured by time over the in vivo IC80) over the IC80 (R^2=0.89; FIG. 7).

[6] = tested on: advanced solid malignancies carrying an alteration in the PIK3CA gene; details: patients treated at ≥270 mg/day, oral, continuous daily schedule; breast, colorectal, endometrial, cervical cancer (1 patient each); as of Feb. 15, 2013; cited from earlier work
[7] = PK/PD/tolerability relationship (time above hyperglycemia threshold versus body weight loss); type: in vivo, nude mice and rats; details: mice and rats, threshold 20 μmol/L mice
Description: From this relationship, it is understood that the compound exposure levels should be sustained for no more than 35% of the dosing interval above the hyperglycemia cut-off to maintain body weight loss below 5% in mice and rats.

ATR = ATR (Homo sapiens, UniProt Q13535); details: cited from earlier work
ATR, sequence (Q13535 whole entry): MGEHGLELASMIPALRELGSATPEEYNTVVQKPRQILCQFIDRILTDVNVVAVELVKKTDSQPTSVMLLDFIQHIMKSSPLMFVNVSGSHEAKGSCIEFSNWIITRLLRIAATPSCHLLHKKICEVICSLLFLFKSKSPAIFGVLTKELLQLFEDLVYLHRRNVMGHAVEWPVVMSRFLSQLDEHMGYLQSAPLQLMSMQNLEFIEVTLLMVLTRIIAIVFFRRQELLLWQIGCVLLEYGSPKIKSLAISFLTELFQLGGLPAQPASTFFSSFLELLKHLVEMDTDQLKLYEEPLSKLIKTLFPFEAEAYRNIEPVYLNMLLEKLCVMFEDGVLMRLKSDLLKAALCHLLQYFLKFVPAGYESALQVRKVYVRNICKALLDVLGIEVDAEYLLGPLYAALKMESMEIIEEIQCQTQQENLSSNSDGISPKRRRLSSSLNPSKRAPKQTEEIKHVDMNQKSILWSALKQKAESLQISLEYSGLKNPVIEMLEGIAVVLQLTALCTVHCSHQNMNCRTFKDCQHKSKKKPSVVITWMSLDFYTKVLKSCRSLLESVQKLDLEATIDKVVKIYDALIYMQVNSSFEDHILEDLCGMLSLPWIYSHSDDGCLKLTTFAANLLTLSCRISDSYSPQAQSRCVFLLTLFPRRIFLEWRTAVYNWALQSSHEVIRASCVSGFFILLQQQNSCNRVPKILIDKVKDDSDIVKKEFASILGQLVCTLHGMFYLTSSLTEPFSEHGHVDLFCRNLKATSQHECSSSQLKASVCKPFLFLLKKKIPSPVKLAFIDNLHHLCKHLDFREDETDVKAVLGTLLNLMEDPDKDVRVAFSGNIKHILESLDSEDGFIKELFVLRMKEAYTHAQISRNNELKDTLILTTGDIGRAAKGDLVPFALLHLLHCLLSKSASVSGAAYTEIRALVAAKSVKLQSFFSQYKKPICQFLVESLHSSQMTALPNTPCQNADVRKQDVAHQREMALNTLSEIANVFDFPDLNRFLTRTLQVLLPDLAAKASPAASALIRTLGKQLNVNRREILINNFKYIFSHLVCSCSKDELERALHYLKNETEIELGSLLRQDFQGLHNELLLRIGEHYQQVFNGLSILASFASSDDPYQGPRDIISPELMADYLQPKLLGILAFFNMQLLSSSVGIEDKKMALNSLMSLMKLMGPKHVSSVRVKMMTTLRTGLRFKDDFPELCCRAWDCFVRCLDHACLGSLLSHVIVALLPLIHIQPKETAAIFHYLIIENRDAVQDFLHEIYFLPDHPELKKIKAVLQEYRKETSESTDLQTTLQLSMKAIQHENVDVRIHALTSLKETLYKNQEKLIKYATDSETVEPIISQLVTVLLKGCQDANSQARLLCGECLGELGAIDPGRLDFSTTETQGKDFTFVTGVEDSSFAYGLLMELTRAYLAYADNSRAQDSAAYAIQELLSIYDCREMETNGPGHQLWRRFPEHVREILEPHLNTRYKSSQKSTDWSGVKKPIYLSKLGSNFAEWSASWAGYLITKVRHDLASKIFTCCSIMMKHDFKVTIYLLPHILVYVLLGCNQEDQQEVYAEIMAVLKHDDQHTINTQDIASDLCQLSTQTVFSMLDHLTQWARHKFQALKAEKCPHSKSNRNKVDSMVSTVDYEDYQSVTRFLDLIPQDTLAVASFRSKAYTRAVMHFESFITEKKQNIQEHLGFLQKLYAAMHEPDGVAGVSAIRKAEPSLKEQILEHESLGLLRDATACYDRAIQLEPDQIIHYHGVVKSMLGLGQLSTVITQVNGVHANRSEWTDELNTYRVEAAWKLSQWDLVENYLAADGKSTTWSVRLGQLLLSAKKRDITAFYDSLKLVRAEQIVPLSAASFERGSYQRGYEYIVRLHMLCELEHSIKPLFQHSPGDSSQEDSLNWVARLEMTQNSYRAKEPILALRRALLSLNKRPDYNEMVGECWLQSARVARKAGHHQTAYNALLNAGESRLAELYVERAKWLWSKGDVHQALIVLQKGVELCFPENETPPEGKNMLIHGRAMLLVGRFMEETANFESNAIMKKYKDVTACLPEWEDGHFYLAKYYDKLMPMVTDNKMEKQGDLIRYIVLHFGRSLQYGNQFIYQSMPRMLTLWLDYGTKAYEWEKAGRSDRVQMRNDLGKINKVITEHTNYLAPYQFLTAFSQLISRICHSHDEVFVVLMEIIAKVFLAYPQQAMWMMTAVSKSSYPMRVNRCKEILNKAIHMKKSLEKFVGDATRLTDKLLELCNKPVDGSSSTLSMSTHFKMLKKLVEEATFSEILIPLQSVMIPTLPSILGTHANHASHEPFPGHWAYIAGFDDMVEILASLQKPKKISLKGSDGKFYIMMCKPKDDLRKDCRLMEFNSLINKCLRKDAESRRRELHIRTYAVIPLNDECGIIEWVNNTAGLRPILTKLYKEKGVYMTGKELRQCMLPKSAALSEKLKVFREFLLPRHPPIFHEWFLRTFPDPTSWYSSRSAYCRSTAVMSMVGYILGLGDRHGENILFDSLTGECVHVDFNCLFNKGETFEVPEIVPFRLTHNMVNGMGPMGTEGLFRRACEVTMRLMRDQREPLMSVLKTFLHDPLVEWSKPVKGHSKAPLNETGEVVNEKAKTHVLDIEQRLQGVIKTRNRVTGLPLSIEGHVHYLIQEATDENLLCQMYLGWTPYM
ATR, sequence (Q8WXE1 whole entry partner): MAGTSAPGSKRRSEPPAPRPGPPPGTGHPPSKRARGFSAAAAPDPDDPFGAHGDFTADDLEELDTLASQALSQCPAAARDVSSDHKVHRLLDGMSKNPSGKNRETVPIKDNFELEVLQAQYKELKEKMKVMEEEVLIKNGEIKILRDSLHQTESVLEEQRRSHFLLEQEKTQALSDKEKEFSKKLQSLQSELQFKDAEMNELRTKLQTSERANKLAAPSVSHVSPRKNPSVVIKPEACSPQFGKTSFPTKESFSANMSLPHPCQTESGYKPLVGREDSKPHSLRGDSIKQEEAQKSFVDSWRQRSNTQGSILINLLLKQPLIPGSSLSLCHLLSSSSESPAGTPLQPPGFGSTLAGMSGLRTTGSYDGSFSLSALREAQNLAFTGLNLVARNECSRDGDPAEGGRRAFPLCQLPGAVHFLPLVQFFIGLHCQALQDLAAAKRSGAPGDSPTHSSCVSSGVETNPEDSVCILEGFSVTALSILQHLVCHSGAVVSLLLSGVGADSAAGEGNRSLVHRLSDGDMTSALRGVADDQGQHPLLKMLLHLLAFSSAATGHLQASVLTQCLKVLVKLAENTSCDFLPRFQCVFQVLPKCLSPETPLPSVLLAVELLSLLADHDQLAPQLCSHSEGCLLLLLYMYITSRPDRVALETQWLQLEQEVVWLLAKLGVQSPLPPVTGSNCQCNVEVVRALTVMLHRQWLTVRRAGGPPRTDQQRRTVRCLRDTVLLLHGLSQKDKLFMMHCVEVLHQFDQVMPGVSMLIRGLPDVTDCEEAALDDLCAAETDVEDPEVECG

[8] = Pharmacokinetics after oral administration, nude rats; type: in vivo; details: nude rats, 12.5, 25, 40 and 80 mg/kg qd
Method: as §6
as §7, with “hold.” for “hold. The column was prepared for the next sample by re-equilibrating over 0.25 minutes to the starting conditions.”

[9] = once or twice per day continuous daily schedule, oral; cited from earlier work
Vps34 = Vps34 (Homo sapiens, UniProt Q8NEB9); details: cited from earlier work
Vps34, sequence (Q8NEB9 whole entry, species assumed): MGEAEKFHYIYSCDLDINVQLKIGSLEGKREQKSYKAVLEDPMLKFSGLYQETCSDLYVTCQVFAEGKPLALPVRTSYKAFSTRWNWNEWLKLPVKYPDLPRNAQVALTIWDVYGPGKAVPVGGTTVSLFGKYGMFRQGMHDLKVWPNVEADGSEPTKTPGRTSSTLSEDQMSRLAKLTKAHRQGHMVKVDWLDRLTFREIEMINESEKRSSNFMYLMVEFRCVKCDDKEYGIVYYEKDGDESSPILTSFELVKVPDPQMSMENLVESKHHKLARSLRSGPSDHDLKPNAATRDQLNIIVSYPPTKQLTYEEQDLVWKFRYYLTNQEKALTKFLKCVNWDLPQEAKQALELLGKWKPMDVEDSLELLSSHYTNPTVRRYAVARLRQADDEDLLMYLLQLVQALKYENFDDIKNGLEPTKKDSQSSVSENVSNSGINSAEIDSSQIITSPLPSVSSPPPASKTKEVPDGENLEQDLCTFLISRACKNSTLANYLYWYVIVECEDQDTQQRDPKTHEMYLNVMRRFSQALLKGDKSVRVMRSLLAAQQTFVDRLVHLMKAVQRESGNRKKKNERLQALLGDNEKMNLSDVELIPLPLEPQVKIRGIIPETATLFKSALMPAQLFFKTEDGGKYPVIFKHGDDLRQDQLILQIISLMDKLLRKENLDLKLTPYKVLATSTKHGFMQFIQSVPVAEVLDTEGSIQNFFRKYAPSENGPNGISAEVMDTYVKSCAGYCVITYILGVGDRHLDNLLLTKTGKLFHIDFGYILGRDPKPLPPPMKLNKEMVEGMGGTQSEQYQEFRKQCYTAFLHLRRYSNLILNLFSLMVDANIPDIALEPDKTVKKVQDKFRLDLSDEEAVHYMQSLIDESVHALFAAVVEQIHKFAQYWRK

S473P-Akt [10] = assay: In vitro cellular S473P-Akt inhibition; type: cell-based
[11] = Pharmacokinetics after oral administration, nude mice; type: in vivo; details: nude mice, 12.5, 25 and 50 mg/kg qd
Method: as §6
as §7, with “hold.” for “hold. The column was prepared for the next sample by re-equilibrating over 0.25 minutes to the starting conditions.”

Cc1nc(NC(=O)N2CCC[C@H]2C(N)=O)sc1-c1ccnc(C(C)(C)C(F)(F)F)c1 [Compound A, (S)-Pyrrolidine-1,2-dicarboxylic acid 2-amide 1-({4-methyl-5-[2-(2,2,2-trifluoro-1,1-dimethyl-ethyl)-pyridin-4-yl]-thiazol-2-yl}-amide)]
Efficacy T/C (observed) (Rat1-myr-p110α tumor [1]; 6.25 mg 2qd): 0.02
Efficacy T/C (observed) (Rat1-myr-p110α tumor [1]; 6.25 mg qd): 0.19
Efficacy Regression (observed) (Rat1-myr-p110α tumor [1]; 12.5 mg 2qd): −0.55
Efficacy T/C (observed) (Rat1-myr-p110α tumor [1]; 12.5 mg qd): 0.09
Efficacy Regression (observed) (Rat1-myr-p110α tumor [1]; 20 mg 2qd): −0.80
Efficacy Regression (observed) (Rat1-myr-p110α tumor [1]; 25 mg qd): −0.53
Efficacy Regression (observed) (Rat1-myr-p110α tumor [1]; 40 mg 2qd): −0.86
Efficacy Regression (observed) (Rat1-myr-p110α tumor [1]; 50 mg qd): −0.65
IC50 (S473P-Akt [2]; Mus musculus, read-out: in vivo IC50, tumor concentration giving 50% S473P-Akt inhibition): 600 nM
IC80 (S473P-Akt [2]; Mus musculus, read-out: in vivo IC80 corrected for plasma protein binding): 352 nM
IC80 (S473P-Akt [2]; Mus musculus, tumor concentration, versus controls, Rat1-myr-p110α tumors, read-out: in vivo IC80, tumor concentration giving 80% S473P-Akt inhibition): 4000 nM
IC50 (S473P-Akt [2]; corrected for mouse PPB, read-out: in vivo IC50 corrected for plasma protein binding): 53 nM
fraction unbound (Plasma protein binding): 0.088
AUC (Human plasma exposure): 35000 ng·h/mL and 80 µM·h
Cmax (Human plasma exposure): 3500 ng/mL and 8 µM
insulin plasma levels [3]: increased proportionally
Efficacy T/C (observed) (Rat1-myr-p110α tumor [4]; 6.25 mg qd): 0.22
Efficacy T/C (observed) (Rat1-myr-p110α tumor [4]; 12.5 mg qd): 0.05
Efficacy Regression (observed) (Rat1-myr-p110α tumor [4]; 25 mg qd): −0.65
Efficacy Regression (observed) (Rat1-myr-p110α tumor [4]; 50 mg qd): −0.80
inhibitory activity against DNA-PK (DNA-PK): lacks inhibitory activity
insulin plasma levels [5]: increased proportionally
inhibitory activity against mTOR (mTOR): lacks inhibitory activity
fraction of the dosing interval with 80% inhibition of Akt phosphorylation required to induce tumor stasis (Rat1-myr P110a tumors): at least 25 % of the dosing interval
clinical response [6]: confirmed partial responses
fraction of the dosing interval above the hyperglycemia cut-off that maintains body weight loss below 5% [7]: no more than 35 % of the dosing interval
inhibitory activity against ATR (ATR): lacks inhibitory activity
dose linearity of pharmacokinetics [8]: linear
decreased appetite [9]: 34 % of patients
diarrhea [9]: 35 % of patients
hyperglycemia [9]: 49 % of patients
nausea [9]: 43 % of patients
rash and hypersensitivity [9]: 34 % of patients
inhibitory activity against Vps34 (Vps34): lacks inhibitory activity
IC50 (S473P-Akt [10]): 74 nM
IC80 (S473P-Akt [10]): 301 nM
dose linearity of pharmacokinetics [11]: linear

Reference: patent US10434092B2, “Dosage regimen for an alpha-isoform selective phosphatidylinositol 3-kinase inhibitor” (Novartis AG, priority 2013, dated 2019)
